Measurements from PubChem BioAssay (NCI).
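All cell lines were grown in 96-well plates and treated with compound for 48 hours. GI50 is the concentration that inhibits growth by half. The concentration for full growth arrest is given as TGI.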

Experiments:
Assay in all cases: DTP human tumour cell line panel, 48 h; in the data active = GI50 below about 0.43 µM; inactive = the rest
ACHN renal = system: ACHN renal
NCI-H460 lung = system: NCI-H460 lung
OVCAR-5 ovarian = system: OVCAR-5 ovarian
SF-295 CNS = system: SF-295 CNS
SNB-19 CNS = system: SNB-19 CNS
UACC-62 melanoma = system: UACC-62 melanoma

O=C(CC1SC(=Nc2ccccc2Cl)NC1=O)Nc1ccc(Cl)cc1Cl (centres undefined)
> 100 µM: TGI (ACHN renal) | TGI (NCI-H460 lung) | TGI (OVCAR-5 ovarian) | TGI (SF-295 CNS) | TGI (SNB-19 CNS) | TGI (UACC-62 melanoma)

CC1(c2ccccc2Cl)C(C#N)C(=O)NC(=O)C1C#N (centres undefined)
> 100 µM: TGI (ACHN renal) | TGI (NCI-H460 lung) | TGI (OVCAR-5 ovarian) | TGI (SF-295 CNS) | TGI (UACC-62 melanoma)
92.8 µM: TGI (SNB-19 CNS)

O=S(=O)(/C=C/C(=C/c1ccccc1)S(=O)(=O)c1ccccc1)c1ccccc1
3.18 µM: TGI (SNB-19 CNS)
3.45 µM: TGI (NCI-H460 lung)
3.05 µM: TGI (SF-295 CNS)
3.14 µM: TGI (ACHN renal)
3.85 µM: TGI (UACC-62 melanoma)

O=c1[nH]cc(F)c(=O)n1C1OC(CO)C(O)C1O (centres undefined)
> 100 µM: TGI (ACHN renal) | TGI (NCI-H460 lung) | TGI (OVCAR-5 ovarian) | TGI (SF-295 CNS) | TGI (SNB-19 CNS)

Cc1ccccc1NC(=O)C(=O)C(C#N)c1ccccc1C (centres undefined)
> 100 µM: TGI (ACHN renal) | TGI (NCI-H460 lung) | TGI (OVCAR-5 ovarian) | TGI (SF-295 CNS) | TGI (SNB-19 CNS) | TGI (UACC-62 melanoma)

N#Cc1ccc(C=NC23CC4CC(CC(C4)C2)C3)cc1
> 100 µM: TGI (ACHN renal) | TGI (NCI-H460 lung) | TGI (OVCAR-5 ovarian) | TGI (SF-295 CNS) | TGI (SNB-19 CNS) | TGI (UACC-62 melanoma)

CCOC(=O)/C(C#N)=C(O)/C(=C\c1ccc(Br)cc1)NC(=O)c1ccccc1
> 100 µM: TGI (ACHN renal) | TGI (NCI-H460 lung) | TGI (OVCAR-5 ovarian) | TGI (SF-295 CNS) | TGI (SNB-19 CNS) | TGI (UACC-62 melanoma)

CC(C)=CC(=O)N(C)C1C2CN3CCC(O2)C13 (centres undefined)
> 100 µM: TGI (ACHN renal) | TGI (NCI-H460 lung) | TGI (OVCAR-5 ovarian) | TGI (SF-295 CNS) | TGI (SNB-19 CNS) | TGI (UACC-62 melanoma)

Cc1ccc(S(=O)(=O)N/N=C(/CC(=O)c2c(C)n([O-])c3ccccc3[n+]2=O)C(=O)Nc2ccccc2C)cc1
> 100 µM: TGI (ACHN renal) | TGI (NCI-H460 lung) | TGI (OVCAR-5 ovarian) | TGI (SF-295 CNS) | TGI (SNB-19 CNS) | TGI (UACC-62 melanoma)

CCCCCCCCCCCCC(Br)C(=O)NCC(N)=O (centres undefined)
57.3 µM: TGI (OVCAR-5 ovarian)
29.5 µM: TGI (SF-295 CNS)
24.3 µM: TGI (SNB-19 CNS)
29.2 µM: TGI (ACHN renal)
34.7 µM: TGI (NCI-H460 lung)
22.7 µM: TGI (UACC-62 melanoma)

C=C1CCC2[C@@H](CCC3[C@]2(C)CCC[C@]3(C)C(=O)OC)C1CC=O (some centres undefined)
31.3 µM: TGI (SF-295 CNS)
31.7 µM: TGI (NCI-H460 lung)
31.8 µM: TGI (OVCAR-5 ovarian)
31.6 µM: TGI (UACC-62 melanoma)
30 µM: TGI (ACHN renal)
33.1 µM: TGI (SNB-19 CNS)
inactive: GI50 (OVCAR-5 ovarian) 16.7 µM | GI50 (SF-295 CNS) 16.8 µM | GI50 (SNB-19 CNS) 18.2 µM

O=C(O)/C=C/c1nc2ccccc2c(=O)o1
> 100 µM: TGI (ACHN renal) | TGI (SF-295 CNS) | TGI (SNB-19 CNS) | TGI (UACC-62 melanoma)

C=CNC(=O)NC(=O)CSc1nnc(-c2ccccc2NC(=O)C(F)(F)F)c(=O)[nH]1
> 100 µM: TGI (NCI-H460 lung) | TGI (OVCAR-5 ovarian) | TGI (SF-295 CNS) | TGI (SNB-19 CNS) | TGI (UACC-62 melanoma)

C[CH2][Sn]([CH2]C)([O]C(=O)c1ccccc1OC)[O][Sn]([CH2]C)([CH2]C)[O]C(=O)c1ccccc1OC
inactive: GI50 (ACHN renal) > 100 µM | GI50 (NCI-H460 lung) > 100 µM | GI50 (OVCAR-5 ovarian) > 100 µM | GI50 (SF-295 CNS) > 100 µM | GI50 (SNB-19 CNS) > 100 µM | GI50 (UACC-62 melanoma) > 100 µM
> 100 µM: TGI (ACHN renal) | TGI (NCI-H460 lung) | TGI (OVCAR-5 ovarian) | TGI (SF-295 CNS) | TGI (SNB-19 CNS) | TGI (UACC-62 melanoma)

O=C1Nc2ccccc2N=CC1NC(=O)C(c1ccccc1)c1ccccc1 (centres undefined)
> 100 µM: TGI (ACHN renal) | TGI (NCI-H460 lung) | TGI (OVCAR-5 ovarian) | TGI (SF-295 CNS) | TGI (SNB-19 CNS) | TGI (UACC-62 melanoma)

Cc1cc(C)nc(NS(=O)(=O)c2ccc(Nc3c4ccccc4nc4c(C(=O)Nc5ccc(S(=O)(=O)N=C(N)N)cc5)cccc34)cc2)n1
> 100 µM: TGI (ACHN renal) | TGI (NCI-H460 lung) | TGI (OVCAR-5 ovarian) | TGI (SNB-19 CNS) | TGI (UACC-62 melanoma)

COc1ccc(-c2cc(C(=O)Nc3ccc(C)c(C)c3)nc(NC#N)n2)cc1
> 100 µM: TGI (ACHN renal) | TGI (NCI-H460 lung) | TGI (OVCAR-5 ovarian) | TGI (SNB-19 CNS) | TGI (UACC-62 melanoma)

COCOCC/C=C/C=O
> 100 µM: TGI (ACHN renal) | TGI (NCI-H460 lung) | TGI (OVCAR-5 ovarian) | TGI (SF-295 CNS) | TGI (SNB-19 CNS) | TGI (UACC-62 melanoma)

CCCCC1(C)C=C/C(=C2/C(=O)O/C(=C\C(=O)O)C2=O)O1 (centres undefined)
> 100 µM: TGI (ACHN renal) | TGI (NCI-H460 lung) | TGI (OVCAR-5 ovarian) | TGI (SF-295 CNS) | TGI (SNB-19 CNS) | TGI (UACC-62 melanoma)

N#CC(c1ccccn1)c1nc2ccccc2[nH]1 (centres undefined)
> 100 µM: TGI (ACHN renal) | TGI (NCI-H460 lung) | TGI (OVCAR-5 ovarian) | TGI (SF-295 CNS) | TGI (SNB-19 CNS) | TGI (UACC-62 melanoma)

Cc1nc(C(=O)O)c2ccccc2n1
> 100 µM: TGI (ACHN renal) | TGI (NCI-H460 lung) | TGI (OVCAR-5 ovarian) | TGI (SF-295 CNS) | TGI (SNB-19 CNS) | TGI (UACC-62 melanoma)

O=S(=O)(c1cccc(N=C=S)c1)c1cccc(N=C=S)c1
34.5 µM: TGI (ACHN renal)
> 100 µM: TGI (OVCAR-5 ovarian) | TGI (SNB-19 CNS)
36.2 µM: TGI (UACC-62 melanoma)
39.4 µM: TGI (SF-295 CNS)

N#CC(C#N)c1ccc(C(=O)N2CCC[C@H]2CO)cc1
> 100 µM: TGI (ACHN renal) | TGI (NCI-H460 lung) | TGI (OVCAR-5 ovarian) | TGI (SF-295 CNS) | TGI (SNB-19 CNS) | TGI (UACC-62 melanoma)

COCCNC(=O)C1C(=O)C(=O)N(CCOC)C1=O (centres undefined)
> 100 µM: TGI (ACHN renal) | TGI (OVCAR-5 ovarian) | TGI (SF-295 CNS) | TGI (SNB-19 CNS) | TGI (UACC-62 melanoma)

Cc1ccc(C)c(N2C(=O)C(=O)C(c3nc4ccccc4s3)/C(=N/NC(=O)NN)C2=O)c1 (centres undefined)
> 100 µM: TGI (ACHN renal) | TGI (NCI-H460 lung) | TGI (SF-295 CNS) | TGI (SNB-19 CNS) | TGI (UACC-62 melanoma)
